Legend:
[1] = target: T1, human TLR9 (Homo sapiens, UniProt Q9NR96); assay: TLR9 inhibition reporter assay (HEK-Blue cells, SEAP reporter, ODN2006 stimulation); type: cell-based; conditions: HEK-Blue cells overexpressing human TLR9, ODN2006 5 nM
T1 construct: host or cells: HEK-Blue cells
T1 sequence (Q9NR96 26-1032): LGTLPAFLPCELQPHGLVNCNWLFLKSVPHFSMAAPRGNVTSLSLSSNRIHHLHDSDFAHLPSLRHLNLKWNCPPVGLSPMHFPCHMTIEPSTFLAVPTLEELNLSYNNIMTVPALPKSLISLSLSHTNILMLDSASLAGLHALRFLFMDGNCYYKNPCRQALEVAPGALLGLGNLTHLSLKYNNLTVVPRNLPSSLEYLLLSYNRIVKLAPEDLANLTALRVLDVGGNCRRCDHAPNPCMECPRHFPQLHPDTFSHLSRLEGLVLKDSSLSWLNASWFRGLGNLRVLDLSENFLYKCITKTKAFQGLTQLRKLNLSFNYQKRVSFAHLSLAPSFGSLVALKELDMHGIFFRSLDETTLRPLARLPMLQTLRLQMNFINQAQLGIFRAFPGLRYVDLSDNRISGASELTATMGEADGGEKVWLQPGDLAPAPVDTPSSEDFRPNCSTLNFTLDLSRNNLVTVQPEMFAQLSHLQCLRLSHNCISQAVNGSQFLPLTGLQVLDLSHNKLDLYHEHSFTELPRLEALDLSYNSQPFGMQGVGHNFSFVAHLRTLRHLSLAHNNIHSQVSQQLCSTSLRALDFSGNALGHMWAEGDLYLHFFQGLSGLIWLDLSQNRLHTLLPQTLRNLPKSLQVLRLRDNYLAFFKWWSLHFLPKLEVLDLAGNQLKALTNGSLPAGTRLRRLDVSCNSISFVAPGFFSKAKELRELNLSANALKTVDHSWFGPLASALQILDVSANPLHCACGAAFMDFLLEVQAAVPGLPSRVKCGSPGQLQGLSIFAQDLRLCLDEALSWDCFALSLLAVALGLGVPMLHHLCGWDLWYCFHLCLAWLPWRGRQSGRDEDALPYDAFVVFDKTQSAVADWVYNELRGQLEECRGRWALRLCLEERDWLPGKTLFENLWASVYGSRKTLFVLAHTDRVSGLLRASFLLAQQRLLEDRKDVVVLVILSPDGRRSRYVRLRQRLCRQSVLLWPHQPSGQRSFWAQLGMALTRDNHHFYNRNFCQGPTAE
Procedure, shortened: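 Agonists used: gardiquimod 7.5 μM (TLR7), R848 15.9 μM (TLR8), ODN2006 5 nM (TLR9), added after 30 min room-temperature compound pre-treatment (0.05 nM–50 μM) of receptor-overexpressing HEK-Blue cells. SEAP reporter (NF-κB/AP-1 driven) read after 22 h at 37 °C; inhibition scaled between agonist+DMSO and reference-inhibitor wells.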

[2] = target: T2, human TLR7 (Homo sapiens, UniProt Q9NYK1); assay: TLR7 inhibition reporter assay (HEK-Blue cells, SEAP reporter, gardiquimod stimulation); type: cell-based; conditions: HEK-Blue cells overexpressing human TLR7, gardiquimod 7.5 μM
T2 construct: host or cells: HEK-Blue cells
T2 sequence (Q9NYK1 27-1049): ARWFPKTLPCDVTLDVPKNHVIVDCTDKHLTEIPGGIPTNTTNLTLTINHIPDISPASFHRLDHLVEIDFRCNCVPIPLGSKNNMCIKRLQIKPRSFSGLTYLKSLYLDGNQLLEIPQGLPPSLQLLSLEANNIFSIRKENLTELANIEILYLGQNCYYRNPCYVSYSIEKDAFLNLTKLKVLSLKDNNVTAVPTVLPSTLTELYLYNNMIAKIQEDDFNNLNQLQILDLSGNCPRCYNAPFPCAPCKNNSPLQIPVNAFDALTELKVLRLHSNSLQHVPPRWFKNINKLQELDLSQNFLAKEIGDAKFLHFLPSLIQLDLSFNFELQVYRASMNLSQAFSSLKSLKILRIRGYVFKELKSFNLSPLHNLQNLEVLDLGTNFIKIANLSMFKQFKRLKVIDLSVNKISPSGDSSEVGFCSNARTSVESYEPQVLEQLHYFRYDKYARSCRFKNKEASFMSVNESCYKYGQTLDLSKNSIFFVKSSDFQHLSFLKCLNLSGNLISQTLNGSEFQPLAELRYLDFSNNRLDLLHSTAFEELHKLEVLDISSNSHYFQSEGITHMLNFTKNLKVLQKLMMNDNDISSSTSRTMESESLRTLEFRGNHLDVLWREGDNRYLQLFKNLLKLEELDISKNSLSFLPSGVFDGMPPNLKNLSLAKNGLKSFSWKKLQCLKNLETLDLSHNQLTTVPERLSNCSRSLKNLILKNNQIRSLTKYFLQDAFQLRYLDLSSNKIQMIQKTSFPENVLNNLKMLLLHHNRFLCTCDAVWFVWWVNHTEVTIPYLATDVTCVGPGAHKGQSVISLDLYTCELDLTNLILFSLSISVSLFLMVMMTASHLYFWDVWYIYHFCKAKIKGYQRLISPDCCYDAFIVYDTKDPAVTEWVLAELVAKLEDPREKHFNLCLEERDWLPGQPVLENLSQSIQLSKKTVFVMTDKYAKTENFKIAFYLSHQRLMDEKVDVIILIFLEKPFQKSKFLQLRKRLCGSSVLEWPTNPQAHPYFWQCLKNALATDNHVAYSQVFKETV
Procedure, shortened: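 HEK-Blue reporter cells (15,000/well TLR7, 20,000 TLR8) exposed to compound over 0.05 nM–50 μM, agonist-stimulated (R848 for TLR8, gardiquimod for TLR7), 22 h at 37 °C, 5% CO2. SEAP read with HEK-Blue Detection; % inhibition relative to agonist-plus-DMSO and known-inhibitor controls.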

SMILES	IC50 [1] [µM]	IC50 [2] [µM]
COc1ccc(-c2[nH]c3ccc(C4CCN(C(=O)CN5CCC[C@@H](C(=O)NCC#N)C5)CC4)cc3c2C(C)C)cc1OC [Example 308, (R)—N-(cyanomethyl)-1-(2-(4-(2-(3,4-dimethoxyphenyl)-3-isopropyl-1H-indol-5-yl)piperidin-1-yl)-2-oxoethyl)piperidine-3-carboxamide]	2.61	0.037
COc1ccc(-c2[nH]c3ccc(C4CCN(C(=O)CN5CCCC(CO)C5)CC4)cc3c2C(C)C)cc1OC (stereo not shown) [Example 226, 1-(4-(2-(3,4-dimethoxyphenyl)-3-isopropyl-1H-indol-5-yl)piperidin-1-yl)-2-(3-(hydroxymethyl)piperidin-1-yl)ethan-1-one]	1.42	0.016
COc1ccc(-c2[nH]c3ccc(C4CCN(C(=O)CN5CCC[C@@H](C(=O)N6CCCC6)C5)CC4)cc3c2C(C)C)cc1OC [Example 303, (R)-1-(4-(2-(3,4-dimethoxyphenyl)-3-isopropyl-1H-indol-5-yl)piperidin-1-yl)-2-(3-(pyrrolidine-1-carbonyl)piperidin-1-yl)ethan-1-one]	1.79	0.03
COc1ccc(-c2[nH]c3ccc(C4CCN(C(=O)CN5CCC[C@H](C(=O)N6CCN(C(C)C)CC6)C5)CC4)cc3c2C(C)C)cc1OC [Example 286, (S)-1-(4-(2-(3,4-dimethoxyphenyl)-3-isopropyl-1H-indol-5-yl)piperidin-1-yl)-2-(3-(4-isopropylpiperazine-1-carbonyl)piperidin-1-yl)ethan-1-one]	0.603	0.005
COc1ccc(-c2[nH]c3ccc(C4CCN(C(=O)CN5CCCN(C)CC5)CC4)cc3c2C(C)C)cc1OC [Example 239, 1-(4-(2-(3,4-dimethoxyphenyl)-3-isopropyl-1H-indol-5-yl)piperidin-1-yl)-2-(4-methyl-1,4-diazepan-1-yl)ethan-1-one]	0.516	0.011
COc1ccc(-c2[nH]c3ccc(C4CCN(Cc5cnn(C)c5)CC4)cc3c2C(C)C)cc1OC [Example 259, 2-(3,4-dimethoxyphenyl)-3-isopropyl-5-(1-((1-methyl-1H-pyrazol-4-yl)methyl)piperidin-4-yl)-1H-indole]	2.03	0.04
COc1ccc(-c2[nH]c3ccc(C4CCN(C(=O)CN5CCCC(C(=O)NC6CCN(C(C)C)CC6)C5)CC4)cc3c2C(C)C)cc1OC (single isomer, unassigned) [Example 281, 1-(2-(4-(2-(3,4-dimethoxyphenyl)-3-isopropyl-1H-indol-5-yl)piperidin-1-yl)-2-oxoethyl)-N-(1-isopropylpiperidin-4-yl)piperidine-3-carboxamide]	0.586	0.017
COc1ccc(-c2[nH]c3ccc(C4CCN(C(=O)CNC[C@H](O)CO)CC4)cc3c2C(C)C)cc1OC [Example 235, (S)-2-((2,3-dihydroxypropyl)amino)-1-(4-(2-(3,4-dimethoxyphenyl)-3-isopropyl-1H-indol-5-yl)piperidin-1-yl)ethan-1-one]	0.774	0.015
COc1ccc(-c2[nH]c3ccc(C4CCN(C(=O)CN5CCN(C(C)C)CC5)CC4)cc3c2C(C)C)cc1OC [Example 240, 1-(4-(2-(3,4-dimethoxyphenyl)-3-isopropyl-1H-indol-5-yl)piperidin-1-yl)-2-(4-isopropylpiperazin-1-yl)ethan-1-one]	1.39	0.011
COc1ccc(-c2[nH]c3ccc(C4CCN(C(=O)CN5CCC[C@H](C(=O)NCC(N)=O)C5)CC4)cc3c2C(C)C)cc1OC [Example 298, (S)—N-(2-amino-2-oxoethyl)-1-(2-(4-(2-(3,4-dimethoxyphenyl)-3-isopropyl-1H-indol-5-yl)piperidin-1-yl)-2-oxoethyl)piperidine-3-carboxamide]	3.94	0.047
COc1ccc(-c2[nH]c3ccc(C4CCN(C(=O)CN[C@@H](CO)CC(C)C)CC4)cc3c2C(C)C)cc1OC [Example 234, (R)-1-(4-(2-(3,4-dimethoxyphenyl)-3-isopropyl-1H-indol-5-yl)piperidin-1-yl)-2-((1-hydroxy-4-methylpentan-2-yl)amino) ethan-1-one]	1.88	0.172

— patent US11180474B2 (BRISTOL-MYERS SQUIBB COMPANY, priority 2016, dated 2021)
